Where a name gives a salt, the structure may show the parent alone.
Experiments:
MMP-14 = target: T1, MMP-14 (Homo sapiens, UniProt P50281); test: In vitro MMP inhibition, IC50 determination (fluorogenic substrate I); type: biochemical; conditions: values in parenthesis; 4 μM substrate I; room temperature
T1 construct: The catalytic domain enzyme was expressed in E. coli inclusion bodies, solubilized in urea; made in house
Experimental: Several hydroxamic acids and salts thereof were analyzed in in vitro assays to determine their ability to inhibit the MMP cleavage of peptide substrates. […] and IC50 constants were calculated from the assayed hydroxamic acid-MMP interactions. Human recombinant MMP-1, MMP-2, MMP-9, MMP-13, and MMP-14 were used in this assay. All enzymes were prepared in Assignee's laboratories following usual laboratory procedures. Protocols for the preparation and use of these enzymes are available in the scientific literature. See, e.g., Enzyme Nomenclature (Academic Press, San Diego, Calif., 1992) (and the citations therein). See also, Freije et al., “Molecular cloning and expression of collagenase-3, a novel human matrix metalloproteinase produced by breast carcinomas,” J Biol. Chem., 269(24), 16766-16773 (1994). The MMP-14 full length cDNA was provided by Dr. Gregory Goldberg of Washington University (St. Louis, Mo.). The catalytic domain enzyme was expressed in E. coli inclusion bodies, solubilized in urea, purified on a preparative […] reverse phase HPLC column, and then refolded in the presence of zinc acetate and purified for use. All MMPs were activated using 4-aminophenylmercuric acetate (“APMA”, Sigma Chemical, St. Louis, Mo.) or trypsin. MMP-9 also was activated using human recombinant MMP-3 (purified in Assignee's laboratory following standard cloning and purification techniques). […] Substrate (I) was purchased from Baychem (Redwood City, Calif.), and substrate II was prepared Assignee's laboratory. Substrate I was used in the IC50 determination assays, while substrate II was used in the Ki determination assays. In the absence of MMP inhibitory activity, either substrate is cleaved at the Gly-Leu peptide bond. […] The stock solutions of the assayed hydroxamic acids (or salts thereof) were prepared in 1% dimethyl sulfoxide (DMSO). […] The experiment controls contained the same amount of Buffer A/DMSO as the assayed sample, but contained no hydroxamic acid (or salt thereof). The assays from which the IC50 determinations were made were performed as follows. […] Louis, Mo.). The assayed hydroxamic acid samples were incubated in MicrofluorTM White Plates (Dynatech, Chantilly, Va.) and analyzed on a Perkin Elmer […] plate reader (Norwalk, Conn.). The excitation wavelength was 328 nm, and the emission wavelength-415 nm. […] As stated in the previous paragraph, samples containing varying concentrations of the same assayed hydroxamic acid were prepared. Inhibition was measured as a reduction in fluorescent intensity as a function of MMP inhibitor concentration. […] All values in Table 2 are given in nM units. The IC50 measurements are in parenthesis.

MMP-9 = target: T2, MMP-9 (Homo sapiens, UniProt P14780); test: In vitro MMP inhibition, Ki determination (fluorogenic substrate II); type: biochemical; conditions: human recombinant enzyme; 4 μM substrate II; room temperature, 1 hr
T2 construct: made in house; host or cells: MMP-9-transfected HT1080 cells (spent media)
T2 sequence (P14780 107-707 limits assumed): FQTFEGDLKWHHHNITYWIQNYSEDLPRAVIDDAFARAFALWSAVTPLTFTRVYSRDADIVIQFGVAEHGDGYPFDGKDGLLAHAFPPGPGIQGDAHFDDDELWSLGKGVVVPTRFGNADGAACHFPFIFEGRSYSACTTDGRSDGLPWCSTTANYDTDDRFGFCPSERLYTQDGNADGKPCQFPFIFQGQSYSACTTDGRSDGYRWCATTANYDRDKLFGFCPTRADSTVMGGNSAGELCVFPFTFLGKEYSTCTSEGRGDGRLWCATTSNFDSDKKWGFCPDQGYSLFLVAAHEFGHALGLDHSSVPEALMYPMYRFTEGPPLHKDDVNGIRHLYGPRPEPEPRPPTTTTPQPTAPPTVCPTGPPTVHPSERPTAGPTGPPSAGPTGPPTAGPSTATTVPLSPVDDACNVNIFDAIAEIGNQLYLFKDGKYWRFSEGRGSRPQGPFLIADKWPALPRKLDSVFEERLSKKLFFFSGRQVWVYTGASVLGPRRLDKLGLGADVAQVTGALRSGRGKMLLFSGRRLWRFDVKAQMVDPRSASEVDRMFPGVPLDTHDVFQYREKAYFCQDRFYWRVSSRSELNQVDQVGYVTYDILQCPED
Experimental: Several hydroxamic acids and salts thereof were analyzed in in vitro assays to determine their ability to inhibit the MMP cleavage of peptide substrates. […] and IC50 constants were calculated from the assayed hydroxamic acid-MMP interactions.
Human recombinant MMP-1, MMP-2, MMP-9, MMP-13, and MMP-14 were used in this assay. All enzymes were prepared in Assignee's laboratories following usual laboratory procedures. Protocols for the preparation and use of these enzymes are available in the scientific literature. See, e.g., Enzyme Nomenclature (Academic Press, San Diego, Calif., 1992) (and the citations therein). See also, Freije et al., “Molecular cloning and expression of collagenase-3, a novel human matrix metalloproteinase produced by breast carcinomas,” J Biol. Chem., 269(24), 16766-16773 (1994).
The MMP-9 proenzyme was purified by gelatin Sepharose chromatography from spent media of MMP-9-transfected HT1080 cells provided by Dr. Howard Welgus of Washington University (St. Louis, Mo.).
All MMPs were activated using 4-aminophenylmercuric acetate (“APMA”, Sigma Chemical, St. Louis, Mo.) or trypsin. MMP-9 also was activated using human recombinant MMP-3 (purified in Assignee's laboratory following standard cloning and purification techniques).
Two fluorogenic, methoxycoumarin-containing polypeptide substrates were used in the MMP inhibition assays: [drawing 427] Here, “Dpa” is 3-(2,4-dinitrophenyl)-L-2,3-diaminopropionyl group, and “MCA” is 7-methoxycoumarin-4-yl acetyl. Substrate (I) was purchased from Baychem (Redwood City, Calif.), and substrate II was prepared Assignee's laboratory. Substrate I was used in the IC50 determination assays, while substrate II was used in the Ki determination assays. In the absence of MMP inhibitory activity, either substrate is cleaved at the Gly-Leu peptide bond. This cleavage separates the highly fluorogenic peptide from the 2,4-dinitrophenyl quencher, thus resulting in increase of fluorescent intensity.
The stock solutions of the assayed hydroxamic acids (or salts thereof) were prepared in 1% dimethyl sulfoxide (DMSO). These stock solutions were diluted in Buffer A (100 mM Tris-HCl, 100 mM NaCl, 10 mM CaCl2, 0.05% polyoxyethylene 23 lauryl ether, pH 7.5) to obtain solutions with different hydroxamic acid concentrations, i.e., assay solutions with different concentrations of the assayed MMP inhibitory compound. The experiment controls contained the same amount of Buffer A/DMSO as the assayed sample, but contained no hydroxamic acid (or salt thereof).
The assays from which the Ki determinations were made were performed as follows. The assayed hydroxamic acid samples were incubated in separate wells of untreated white polystyrene plates (Nunc Nalgene International, Rochester, N.Y.), and analyzed on a Tecan SpectraFlour Plus plate reader. The excitation wavelength was 330 nm, and the emission wavelength—420 nm. All samples (assayed hydroxamic acids and controls) were incubated in separate plate wells at room temperature for 1 hr in the presence of 4 μM of MMP substrate (II). In the absence of MMP inhibitory activity, substrate II was cleaved at the Gly-Leu bond resulting in an increase of relative fluorescence. Inhibition was observed as a reduced rate of this increase in relative fluorescence. The various hydroxamic acids were analyzed using a single low enzyme concentration with a single substrate concentration fixed at or below the Km. This protocol is a modification of method by Knight et al., FEBS Lett., 296(3), 263-266 (1992). Apparent inhibitory constants were determined by non-linear regression of reaction velocity as a function of inhibitor and enzyme concentration using Morrison's equation, as described by Kuzmic, Anal. Biochem. 286, 45-50 (2000). Modifications were made in the non-linear regression method to allow a common control reaction rate and effective enzyme concentration to be shared between all dose-response relationships on a given assay plate. […]

Compound | IC50 (MMP-14) [µM] | Ki (MMP-9) [nM]
CCCCc1ccc(N2CCN(S(=O)(=O)C3(C(=O)NO)CCN(CCOC)CC3)CC2)cc1 [Example 5, 4-{[4-(4-butylphenyl)piperazin-1-yl]sulfonyl}-N-hydroxy-1-(2-methoxyethyl)piperidine-4-carboxamide Dihydrochloride] | 4.55 | 0.108
CCCCCc1ccc(N2CCN(S(=O)(=O)C3(C(=O)NO)CCN(CCOC)CC3)CC2)cc1 [Example 6, N-Hydroxy-1-(2-methoxyethyl)-4-{[4-(4-pentylphenyl)piperazin-1-yl]sulfonyl}piperidine-4-carboxamide Dihydrochloride] | > 10 | 0.287
O=C(NO)C1(S(=O)(=O)N2CCN(c3ccc(OCC4CC4)c(F)c3)CC2)CCN(C2CC2)CC1 [Example 10, 1-cyclopropyl-4-[[4-[4-(cyclopropylmethoxy)-3-fluorophenyl]-1-piperazinyl]sulfonyl]-N-hydroxy-4-piperidinecarboxamide, dihydrochloride] | 5.82 | 0.97
CCCCOc1ccc(N2CCN(S(=O)(=O)C3(C(=O)NO)CCN(CCOC)CC3)CC2)cc1F [Example 11, 4-[[4-(4-butoxy-3-fluorophenyl)-1-piperazinyl]sulfonyl]-N-hydroxy-1-(2-methoxyethyl)-4-piperidinecarboxamide, Dihydrochloride] | 7.12 | 2.67
CCCCCc1ccc(C2CCN(S(=O)(=O)C3(C(=O)NO)CCN(CCOC)CC3)CC2)cc1 [Example 15, N-hydroxy-1-(2-methoxyethyl)-4-{[4-(4-pentylpheyl)piperidin-1-yl]sulfonyl}piperidine-4-carboxamide Hydrochloride] | 6.17 | 0.13
